Data taken from ChEMBL document CHEMBL1201862, “PubChem BioAssay data set” (2004).
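These data come from cells grown in 96-well plates and exposed to compound for 48 hours at five concentrations. Abbreviation: GI50, concentration required for 50% inhibition of growth.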 Active and inactive are the calls of the source. No stated cut-off is given here; in the data, active = GI50 up to about 1.1 µM and inactive = higher.

How the values were obtained:
Assay in all cases: NCI anticancer screen, dose series, 48 h
DLD-1 = system: DLD-1
DMS-114 = system: DMS-114
DMS-273 = system: DMS-273
HOP-18 = system: HOP-18
LXFL 529 = system: LXFL 529
M19-MEL = system: M19-MEL
RXF 631 = system: RXF 631
SNB-78 = system: SNB-78
XF498 = system: XF498

Q: Which GI50 (DLD-1) does the source give for Cc1ccc(C2(O)CC(c3ccc([N+](=O)[O-])o3)=NN2C(=O)COc2ccccc2Cl)cc1 (stereo not given) here?
A: 6.08 µM (inactive)

Q: And the GI50 (DMS-114)?
A: 12.8 µM (inactive)

Q: What about the GI50 (DMS-273) of the same molecule?
A: 12.9 µM (inactive)

Q: What about the GI50 (HOP-18) of the same molecule?
A: 20.6 µM (inactive)

Q: And the GI50 (LXFL 529)?
A: 6.59 µM (inactive)

Q: And the GI50 (M19-MEL)?
A: 3.69 µM (inactive)

Q: What about the GI50 (RXF 631) of the same molecule?
A: 6.87 µM (inactive)

Q: What about the GI50 (SNB-78) of the same molecule?
A: 42.6 µM (inactive)

Q: What about the GI50 (XF498) of the same molecule?
A: 16.9 µM (inactive)

Q: CC(C(=O)c1ccc(O)cc1)C1(O)C(=O)Nc2c(Cl)cc(Cl)cc21 (stereo not given) was tested. Which GI50 (DLD-1) did it give?
A: > 89.7 µM (inactive)

Q: What about the GI50 (DMS-114) of the same molecule?
A: 13.9 µM (inactive)

Q: And the GI50 (DMS-273)?
A: 70.5 µM (inactive)

Q: And the GI50 (LXFL 529)?
A: 26.9 µM (inactive)

Q: What about the GI50 (M19-MEL) of the same molecule?
A: 20.6 µM (inactive)

Q: And the GI50 (RXF 631)?
A: > 84.9 µM (inactive)

Q: What about the GI50 (SNB-78) of the same molecule?
A: 46.8 µM (inactive)

Q: And the GI50 (XF498)?
A: 23.6 µM (inactive)

Q: CC12OC3CC(O1)C1(C=O)C4CCC5(C)C(c6ccc(=O)oc6)CCC5(O)C4CCC1(C3)O2 (stereo not given) was tested. Which GI50 (DLD-1) did it give?
A: 0.0995 µM (active)

Q: And the GI50 (DMS-114)?
A: 0.0414 µM (active)

Q: And the GI50 (DMS-273)?
A: 0.0519 µM (active)

Q: What about the GI50 (HOP-18) of the same molecule?
A: 0.252 µM (active)

Q: And the GI50 (LXFL 529)?
A: 0.139 µM (active)

Q: And the GI50 (M19-MEL)?
A: 0.258 µM (active)

Q: What about the GI50 (SNB-78) of the same molecule?
A: 0.131 µM (active)

Q: For Cc1ccc(O)c(C(=O)CCCC(=O)c2cc(C)ccc2O)c1, which GI50 (DLD-1) is on record?
A: > 100 µM (inactive)

Q: And the GI50 (DMS-114)?
A: 32.9 µM (inactive)

Q: What about the GI50 (DMS-273) of the same molecule?
A: 55.3 µM (inactive)

Q: And the GI50 (HOP-18)?
A: > 100 µM (inactive)

Q: And the GI50 (LXFL 529)?
A: > 100 µM (inactive)

Q: What about the GI50 (M19-MEL) of the same molecule?
A: > 100 µM (inactive)

Q: What about the GI50 (SNB-78) of the same molecule?
A: 55.8 µM (inactive)

Q: What about the GI50 (XF498) of the same molecule?
A: > 100 µM (inactive)

Q: COC(=O)/C(C#N)=C1\CCc2ccccc21 was tested. Which GI50 (DLD-1) did it give?
A: > 100 µM (inactive)

Q: What about the GI50 (DMS-114) of the same molecule?
A: > 100 µM (inactive)

Q: And the GI50 (DMS-273)?
A: > 100 µM (inactive)

Q: And the GI50 (LXFL 529)?
A: > 100 µM (inactive)

Q: What about the GI50 (M19-MEL) of the same molecule?
A: > 100 µM (inactive)

Q: And the GI50 (XF498)?
A: > 100 µM (inactive)

Q: With NC1=NS(=O)(=O)Nc2nc(-c3ccccc3)c(-c3ccccc3)nc21 as the molecule, how does the GI50 (DLD-1) read?
A: > 100 µM (inactive)

Q: And the GI50 (DMS-273)?
A: > 100 µM (inactive)

Q: What about the GI50 (HOP-18) of the same molecule?
A: > 100 µM (inactive)

Q: And the GI50 (LXFL 529)?
A: > 100 µM (inactive)

Q: And the GI50 (M19-MEL)?
A: > 100 µM (inactive)

Q: And the GI50 (SNB-78)?
A: > 100 µM (inactive)

Q: And the GI50 (XF498)?
A: > 100 µM (inactive)

Q: COC(=O)C(=C\Sc1ccccc1)/C=C/C(=O)OC(C)(C)C was tested. Which GI50 (DLD-1) did it give?
A: 2.62 µM (inactive)

Q: And the GI50 (DMS-114)?
A: 11.2 µM (inactive)

Q: What about the GI50 (DMS-273) of the same molecule?
A: 11.9 µM (inactive)

Q: And the GI50 (HOP-18)?
A: 16.2 µM (inactive)

Q: What about the GI50 (LXFL 529) of the same molecule?
A: 3.5 µM (inactive)

Q: And the GI50 (M19-MEL)?
A: 10.8 µM (inactive)

Q: And the GI50 (SNB-78)?
A: 15.1 µM (inactive)

Q: And the GI50 (XF498)?
A: 15 µM (inactive)

Q: COc1cc(CNc2cnc3cc(N)ccc3n2)cc(OC)c1OC was tested. Which GI50 (DLD-1) did it give?
A: 58.1 µM (inactive)

Q: What about the GI50 (DMS-114) of the same molecule?
A: 18.8 µM (inactive)

Q: What about the GI50 (DMS-273) of the same molecule?
A: 0.191 µM (active)

Q: What about the GI50 (HOP-18) of the same molecule?
A: 78.5 µM (inactive)

Q: What about the GI50 (LXFL 529) of the same molecule?
A: 34.9 µM (inactive)

Q: And the GI50 (M19-MEL)?
A: 16.5 µM (inactive)

Q: What about the GI50 (XF498) of the same molecule?
A: 22.6 µM (inactive)

Q: With CCOC(=O)C(=O)NNc1nc2c(s1)C(=O)c1ccccc1C2=O as the molecule, how does the GI50 (DLD-1) read?
A: 5.04 µM (inactive)

Q: And the GI50 (DMS-114)?
A: 1.76 µM (inactive)

Q: What about the GI50 (DMS-273) of the same molecule?
A: 4.57 µM (inactive)

Q: What about the GI50 (HOP-18) of the same molecule?
A: 2.24 µM (inactive)

Q: And the GI50 (LXFL 529)?
A: 1.82 µM (inactive)

Q: What about the GI50 (M19-MEL) of the same molecule?
A: 0.544 µM (active)

Q: What about the GI50 (RXF 631) of the same molecule?
A: 11.2 µM (inactive)

Q: And the GI50 (SNB-78)?
A: 2.54 µM (inactive)

Q: What about the GI50 (XF498) of the same molecule?
A: 2.09 µM (inactive)

Q: For N#Cc1c2nc3ccccc3nc2n2ccccc12, which GI50 (DLD-1) is on record?
A: > 100 µM (inactive)

Q: What about the GI50 (DMS-114) of the same molecule?
A: > 100 µM (inactive)

Q: What about the GI50 (DMS-273) of the same molecule?
A: > 100 µM (inactive)

Q: And the GI50 (LXFL 529)?
A: > 100 µM (inactive)

Q: And the GI50 (M19-MEL)?
A: > 100 µM (inactive)

Q: And the GI50 (SNB-78)?
A: > 100 µM (inactive)

Q: And the GI50 (XF498)?
A: > 100 µM (inactive)

Q: For O=c1c2cccnc2ncn1CCN1CCCCC1, which GI50 (DLD-1) is on record?
A: > 100 µM (inactive)

Q: And the GI50 (DMS-114)?
A: > 100 µM (inactive)

Q: And the GI50 (DMS-273)?
A: > 100 µM (inactive)

Q: What about the GI50 (LXFL 529) of the same molecule?
A: > 100 µM (inactive)

Q: What about the GI50 (M19-MEL) of the same molecule?
A: > 100 µM (inactive)

Q: What about the GI50 (SNB-78) of the same molecule?
A: > 100 µM (inactive)

Q: What about the GI50 (XF498) of the same molecule?
A: > 100 µM (inactive)

Q: For Nc1nc(O)c2c(ncn2CCO)n1, which GI50 (DLD-1) is on record?
A: > 100 µM (inactive)

Q: And the GI50 (DMS-273)?
A: > 100 µM (inactive)

Q: And the GI50 (HOP-18)?
A: > 100 µM (inactive)

Q: What about the GI50 (LXFL 529) of the same molecule?
A: > 100 µM (inactive)

Q: And the GI50 (M19-MEL)?
A: > 100 µM (inactive)

Q: And the GI50 (SNB-78)?
A: > 100 µM (inactive)

Q: And the GI50 (XF498)?
A: > 100 µM (inactive)
